Measured values published in patent publication US6632981B1, “DNA sequences encoding polypeptides having beta-1,3-glucanase activity” (Novartis Finance Corporation, priority 1988, dated 2003).

Test system: chimeric PR-1a/GUS gene
Assay: GUS induction in transformed tomato callus
Format: cell-based
Conditions: 250 g/l spray, 21 hours
Method: Agrobacterium strains containing the appropriate vectors as described above (e.g. CIB270, CIB271, CIB272, CIB273, pCIB271×15955, pCIB271 X A208, pCIB271 X A281, pCIB271 X A4, pCIB272 X 15955, pCIB272 X A208, pCIB272 X A281, pCIB272 X A4, pCIB273 X 15955, pCIB273 X A208, pCIB273 X A281, and pCIB273 X A4) are grown as described in Example 112. The bacteria, diluted to an OD600 of 0.2-0.4, are then used for inoculation of stems of tomato seedlings prepared as described below.
Tomato seeds are soaked 20 min in 10% chlorox and rinsed with sterile water. […]
After one week the inoculated stems are cut and placed on 0.7% agar containing MS salts, 3% sucrose, […] 6-benzylaminopurine, 100 µg/ml carbenicillin, 100 µg/ml mefoxim, and 50 µg/ml kanamycin. […] The callus is transferred to fresh media every two weeks until sufficient quantity is obtained for 4 plates. […]
The reactions are carried out in the wells of ELISA plates by mixing 5-25 l extract with 120-100 l GUS assay buffer (50 mM sodium phosphate buffer pH 7.0, 0.1% Triton X-100, 10 mM β-mercaptoethanol) containing 4-methyl umbelliferyl glucuronide (MU) at a final concentration of 2 mM in a total volume of 125 l. […] The concentration of fluorescent indicator released is determined by reading the plate on a Flow Labs Fluoroskan II ELISA plate reader.

SMILES: COC(=O)c1cccc2nnsc12 [Methyl benzo-1,2,3-thiadiazole-7-carboxylate]
- GUS activities (tomato callus transformed with CIB271, H2O spray 17.2): 56.1 pKat MU/mg protein
- GUS activities (tomato callus transformed with CIB273 X A4, H2O spray 4.6): 22.1 pKat MU/mg protein
